Test results from patent US11065253B2, “Arylquinazolines” (Merck Patent GmbH, priority 2013, dated 2021).
pIC50: −log10 of the molar value. Where two headings read alike, the source gives them in different places.

Tests used:
Kv11.1 (hERG) channel = Kv11.1 (hERG) channel (Homo sapiens (Human), UniProt Q12809); experiment: Kv11.1 ion channel binding assay (Predictor hERG fluorescence polarisation); conditions: class symbol marked with asterisk (*)
Procedure: D) Kv11.1 Ion Channel Binding Assay
Kv11.1 (hERG=human ether a go-go related […]) is a cardiac K^+ channel which should if possible not interact with the test substances. This interaction is determined quantitatively with the aid of the Predictor™ hERG Fluorescence Polarizations (FP) Assays from Life Technologies. In the case of this assay principle, cardiomyocyte cell membranes having a certain proportion of Kv11.1 channels are isolated. A dye-labelled Kv11.1 binding partner gives a high fluorescence polarisation signal by interaction with the Kv11.1. In the case of displacement of the dye, a reduction in the fluorescence polarisation signal occurs.
The assay is carried out automatically as follows: 15 nl of the test substances (highest concentration: 10 mM, 10 concentrations: dilution factors 1:3.16, DMSO) are transferred into an empty microtitre plates having 384 wells by means of an acoustic pipetter. 3 μl of the isolated membranes are subsequently added. Membranes and test substances are incubated at 22° C. for 15 min (+/−5 min). In the next step, the dye-labelled binding partner is added, followed by incubation at 22° C. After incubation for two hours, the measurement of the fluorescence polarisation is carried out on an Envision multimode Reader. Measured raw data are standardised with the aid of Genedata Assay Analyzer. The IC50 and % effect values are calculated in Genedata Condoseo.

[1] = system: phospho-serine 2056 DNA-PK in HCT116 cells; experiment: DNA-PK phosphorylation at serine 2056 (cellular), ELISA in bleomycin-treated HCT116 cells; format: cell-based; conditions: read-out: IC50 pDNA-PK
Procedure, shortened: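 HCT116, MEM alpha + 10% FCS, 37 °C/10% CO2, seeded o/n. Cpd + 10 μM bleomycin, 6 h. ELISA, chemiluminescence; phospho/total DNA-PKcs ratio, DMSO = blank.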

[2] = cellular DNA-PK phosphorylation at serine 2056, HCT116 cells
[3] = Homo sapiens, HCT-116, cellular DNA-PK phosphorylation at serine 2056, HCT116 cells

Kv11.1 (hERG) channel, sequence (Q12809 whole entry): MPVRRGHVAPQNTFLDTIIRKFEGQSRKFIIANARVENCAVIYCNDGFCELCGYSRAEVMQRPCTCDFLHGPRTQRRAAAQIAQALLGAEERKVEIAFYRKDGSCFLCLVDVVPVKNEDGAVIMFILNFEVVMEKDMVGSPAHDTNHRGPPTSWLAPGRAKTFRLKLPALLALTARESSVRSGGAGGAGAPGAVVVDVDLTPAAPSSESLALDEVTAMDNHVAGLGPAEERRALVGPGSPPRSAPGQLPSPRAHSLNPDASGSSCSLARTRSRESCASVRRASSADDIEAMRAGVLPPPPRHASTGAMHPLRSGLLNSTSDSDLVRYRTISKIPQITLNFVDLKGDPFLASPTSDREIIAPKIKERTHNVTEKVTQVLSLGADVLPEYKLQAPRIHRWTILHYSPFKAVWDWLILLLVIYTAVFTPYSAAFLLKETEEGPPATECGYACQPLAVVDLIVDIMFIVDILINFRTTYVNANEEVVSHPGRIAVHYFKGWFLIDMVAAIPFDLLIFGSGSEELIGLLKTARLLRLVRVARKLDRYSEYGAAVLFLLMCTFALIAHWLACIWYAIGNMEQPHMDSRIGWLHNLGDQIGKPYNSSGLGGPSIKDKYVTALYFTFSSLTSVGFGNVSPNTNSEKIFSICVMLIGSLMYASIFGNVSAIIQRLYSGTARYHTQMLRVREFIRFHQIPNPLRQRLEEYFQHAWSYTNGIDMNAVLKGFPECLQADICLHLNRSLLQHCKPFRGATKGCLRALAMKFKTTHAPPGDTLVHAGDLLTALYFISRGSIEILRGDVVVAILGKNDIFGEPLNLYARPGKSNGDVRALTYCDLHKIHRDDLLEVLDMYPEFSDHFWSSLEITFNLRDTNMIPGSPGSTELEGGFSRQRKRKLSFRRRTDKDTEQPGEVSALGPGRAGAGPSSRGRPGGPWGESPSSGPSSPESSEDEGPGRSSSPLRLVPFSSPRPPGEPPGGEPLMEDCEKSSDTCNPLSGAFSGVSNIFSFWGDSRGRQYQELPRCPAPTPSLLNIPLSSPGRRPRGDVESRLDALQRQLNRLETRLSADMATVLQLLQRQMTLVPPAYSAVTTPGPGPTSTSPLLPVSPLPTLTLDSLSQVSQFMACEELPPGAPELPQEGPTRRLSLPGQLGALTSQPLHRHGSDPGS

For COc1nccnc1C(O)c1ccc(F)c(-c2ncnc3cc(N4CCOCC4)cc(F)c23)c1 (single isomer, unassigned) [Example 253, [4-Fluoro-3-(5-fluoro-7-morpholin-4-yl-quinazolin-4-yl)-phenyl]-(3-methoxy-pyrazin-2-yl)-methanol], the “Ki [Kv1.11 hERG]” value (Kv11.1 (hERG) channel) was “A*”.
With COc1ccc(C(O)c2cc(-c3ncnc4cc(N5CCOCC5)cc(F)c34)c(F)cc2Cl)nn1 (single isomer, unassigned) [Example 263, [2-Chloro-4-fluoro-5-(5-fluoro-7-morpholin-4-yl-quinazolin-4-yl)-phenyl]-(6-methoxy-pyridazin-3-yl)-methanol] the “Ki [Kv1.11 hERG]” value (Kv11.1 (hERG) channel) was “A*”.
In the case of Cc1nccnc1C(O)c1ccc(F)c(-c2ncnc3cc(N4CCOCC4)sc23)c1 (stereo not shown) [Example 246, [4-Fluoro-3-(6-morpholin-4-yl-thieno[3,2-d}-pyrimidin-4-yl)-phenyl]-(3-methyl-pyrazin-2-yl)-methanol], the “Ki [Kv1.11 hERG]” value (Kv11.1 (hERG) channel) was “A*”.
NC(=O)C(c1ccc(F)c(-c2ncnc3cc(N4CCOCC4)ccc23)c1)c1nncc2ccsc12 (stereo not shown) [Example 284, 2-[4-Fluoro-3-(7-morpholin-4-yl-quinazolin-4-yl)-phenyl]-2-thieno-[2,3-d}pyridazin-7-yl-acetamide] was tested, and the “Ki [Kv1.11 hERG]” value (Kv11.1 (hERG) channel) was “A*”.
For COC(c1ccc(F)c(-c2ncnc3cc(N4CCOCC4)ccc23)c1)c1nccnc1C (stereo not shown) [Example 352], the “Ki [Kv1.11 hERG]” value (Kv11.1 (hERG) channel) was “A*”.
OC(c1cc(-c2ncnc3cc(N4CCOCC4)ccc23)c(F)cc1F)c1ncnc2ccoc12 (stereo not shown) [Example 446, [2,4-Difluoro-5-(7-morpholin-4-yl-quinazolin-4-yl)-phenyl]furo[3,2-d}-pyrimidin-4-yl-methanol] showed a pIC50 [1, 2] of 5.30 to 6.30.
In the case of COc1cncnc1C(O)c1cc(-c2ncnc3cc(N4CCOCC4)ccc23)c(F)cc1Cl (stereo not shown) [Example 447, [2-Chloro-4-fluoro-5-(7-morpholin-4-yl-quinazolin-4-yl)-phenyl]-(5-methoxy-pyrimidin-4-yl)-methanol], the pIC50 [1, 3] was 5.30 to 6.30.
Work on COc1cncnc1C(O)c1cc(-c2ncnc3cc(N4CCOCC4)ccc23)c(F)cc1F (stereo not shown) [Example 448, [2,4-Difluoro-5-(7-morpholin-4-yl-quinazolin-4-yl)-phenyl]-(5-methoxy-pyrimidin-4-yl)-methanol] yielded a pIC50 [1, 3] of 5.30 to 6.30.
For OC(c1cc(-c2ncnc3cc(N4CCOCC4)ccc23)c(F)cc1F)c1nccnc1OC(F)F (stereo not shown) [Example 449, (3-Difluoromethoxy-pyrazin-2-yl)-[2,4-difluoro-5-(7-morpholin-4-yl-quinazolin-4-yl)-phenyl]methanol], the pIC50 [1, 2] was 5.30 to 6.30.
In the case of OC(c1cc(-c2ncnc3cc(N4CCOCC4)ccc23)c(F)cc1F)c1nccnc1OC(F)F (stereo not shown) [Example 450, (3-Difluoromethoxy-pyrazin-2-yl)-[2,4-difluoro-5-(7-morpholin-4-yl-quinazolin-4-yl)-phenyl]methanol], the pIC50 [1, 2] was 5.00 to 5.30.
OC(c1cc(-c2ncnc3cc(N4CCOCC4)ccc23)c(F)cc1F)c1nccnc1OC(F)F (stereo not shown) [Example 451, (3-Difluoromethoxy-pyrazin-2-yl)-[2,4-difluoro-5-(7-morpholin-4-yl-quinazolin-4-yl)-phenyl]methanol] showed a pIC50 [1, 2] of 5.30 to 6.30.
OC(c1cc(-c2ncnc3cc(N4CCOCC4)ccc23)c(F)cc1Cl)c1ncnc2ccoc12 (stereo not shown) [Example 452, [2-Chloro-4-fluoro-5-(7-morpholin-4-yl-quinazolin-4-yl)-phenyl]furo[3,2-d}-pyrimidin-4-yl-methanol] showed a pIC50 [1, 2] greater than 6.30.
In the case of COc1nccnc1C(O)c1cc(-c2ncnc3cc(N4CCOCC4)ccc23)c(F)cc1F (stereo not shown) [Example 453], the pIC50 [1, 3] was greater than 6.30.
COc1nccnc1C(O)c1cc(-c2ncnc3cc(N4CCOCC4)ccc23)c(F)cc1F (stereo not shown) [Example 454] showed a pIC50 [1, 2] greater than 6.30.
COc1nccnc1[C@@H](O)c1cc(-c2ncnc3cc(N4CCOCC4)ccc23)c(F)cc1Cl [Example 456, (S)-[2-Chloro-4-fluoro-5-(7-morpholin-4-yl-quinazolin-4-yl)-phenyl]-(3-methoxy-pyrazin-2-yl)-methanol] showed a pIC50 [1, 2] greater than 6.30.
Cc1nccnc1C(O)c1cc(-c2ncnc3cc(N4CCOCC4)ccc23)c(F)cc1Cl (stereo not shown) [Example 457, [2-Chloro-4-fluoro-5-(7-morpholin-4-yl-quinazolin-4-yl)-phenyl]-(3-methyl-pyrazin-2-yl)-methanol] was tested, and the pIC50 [1, 3] was greater than 6.30.
Work on COc1ccc(C(O)c2cc(-c3ncnc4cc(N5CCOCC5)ccc34)ccc2Cl)nn1 (stereo not shown) [Example 458, [2-Chloro-5-(7-morpholin-4-yl-quinazolin-4-yl)-phenyl]-(6-methoxy-pyridazin-3-yl)-methanol] yielded a pIC50 [1, 3] greater than 6.30.
COc1ccc(C(O)c2cc(-c3ncnc4cc(N5CCOCC5)ccc34)ccc2Cl)nn1 (stereo not shown) [Example 460, [2-Chloro-5-(7-morpholin-4-yl-quinazolin-4-yl)-phenyl]-(6-methoxy-pyridazin-3-yl)-methanol] gave a pIC50 [1, 2] greater than 6.30.
Cn1cnc2ccnc(C(O)c3ccc(F)c(-c4ncnc5cc(N6CCOCC6)ccc45)c3)c21 (stereo not shown) [Example 461, [4-Fluoro-3-(7-morpholin-4-yl-quinazolin-4-yl)-phenyl]-(3-methyl-3H-imidazo[4,5-c]-pyridin-4-yl)methanol] showed a pIC50 [1, 3] greater than 6.30.
In the case of OC(c1ccc(F)c(-c2ncnc3cc(N4CCOCC4)ccc23)c1)c1nccnc1I (stereo not shown) [Example 462, [4-Fluoro-3-(7-morpholin-4-yl-quinazolin-4-yl)-phenyl]-(3-iodo-pyrazin-2-yl)-methanol], the pIC50 [1, 2] was greater than 6.30.
With CCOc1cccnc1C(O)c1ccc(F)c(-c2ncnc3cc(N4CCOCC4)ccc23)c1 (stereo not shown) [Example 463, (3-Ethoxy-pyridin-2-yl)-[4-fluoro-3-(7-morpholin-4-yl-quinazolin-4-yl)-phenyl]methanol] the pIC50 [1, 3] was greater than 6.30.
OC(c1ccc(F)c(-c2ncnc3cc(N4CCOCC4)ccc23)c1)c1nccnc1OC(F)F (stereo not shown) [Example 464, (3-Difluoromethoxy-pyrazin-2-yl)-[4-fluoro-3-(7-morpholin-4-yl-quinazolin-4-yl)-phenyl]methanol] showed a pIC50 [1, 2] of 5.30 to 6.30.
In the case of OC(c1ccc(F)c(-c2ncnc3cc(N4CCOCC4)ccc23)c1)c1ncccc1Cl (stereo not shown) [Example 465, (3-Chloro-pyridin-2-yl)-[4-fluoro-3-(7-morpholin-4-yl-quinazolin-4-yl)-phenyl]methanol], the pIC50 [1, 3] was greater than 6.30.
COc1nccnc1C(O)c1cc(-c2ncnc3cc(N4CCOCC4)ccc23)c(F)cc1F (stereo not shown) [Example 467, [2,4-Difluoro-5-(7-morpholin-4-yl-quinazolin-4-yl)-phenyl]-(3-methoxy-pyrazin-2-yl)-methanol] gave a pIC50 [1, 2] greater than 6.30.
COc1nccnc1C(O)c1cc(-c2ncnc3cc(N4CCOCC4)ccc23)c(F)cc1Cl (stereo not shown) [Example 468, [2-Chloro-4-fluoro-5-(7-morpholin-4-yl-quinazolin-4-yl)-phenyl]-(3-methoxy-pyrazin-2-yl)-methanol] was tested, and the pIC50 [1, 3] was greater than 6.30.
OC(c1cccnn1)c1cc(-c2ncnc3cc(N4CCOCC4)ccc23)ccc1Cl (stereo not shown) [Example 470, [2-Chloro-5-(7-morpholin-4-yl-quinazolin-4-yl)-phenyl]pyridazin-3-yl-methanol] showed a pIC50 [1, 2] greater than 6.30.
With OC(c1ccc(F)c(-c2ncnc3cc(N4CCOCC4)ccc23)c1)c1ncnc2ccoc12 (stereo not shown) [Example 471, [4-Fluoro-3-(7-morpholin-4-yl-quinazolin-4-yl)-phenyl]furo[3,2-d}-pyrimidin-4-yl-methanol] the pIC50 [1, 2] was greater than 6.30.
Cc1cccnc1C(O)c1ccc(F)c(-c2ncnc3cc(N4CCOCC4)ccc23)c1 (stereo not shown) [Example 472, [4-Fluoro-3-(7-morpholin-4-yl-quinazolin-4-yl)-phenyl]-(3-methyl-pyridin-2-yl)methanol] was tested, and the pIC50 [1, 2] was greater than 6.30.
COc1cnc(C(O)c2ccc(F)c(-c3ncnc4cc(N5CCOCC5)ccc34)c2)c(Br)c1 (stereo not shown) [Example 473, (3-bromo-5-methoxy-pyridin-2-yl)-[4-fluoro-3-(7-morpholin-4-yl-quinazolin-4-yl)-phenyl]methanol] showed a pIC50 [1, 3] greater than 6.30.
For OC(c1cn2ccsc2n1)c1cc(-c2ncnc3cc(N4CCOCC4)ccc23)c(F)cc1F (stereo not shown) [Example 474, [2,4-Difluoro-5-(7-morpholin-4-yl-quinazolin-4-yl)-phenyl]imidazo-[2,1-b]thiazol-6-yl-methanol], the pIC50 [1, 3] was 4.52 to 5.00.
Compound OC(c1ccc(F)c(-c2ncnc3cc(N4CCOCC4)ccc23)c1)c1ncccc1OC(F)(F)F (stereo not shown) [Example 475, [4-Fluoro-3-(7-morpholin-4-yl-quinazolin-4-yl)-phenyl]-(3-trifluoro-methoxypyridin-2-yl)-methanol] has a pIC50 [1, 3] greater than 6.30.
Compound OC(c1ccc(F)c(-c2ncnc3cc(N4CCOCC4)ccc23)c1)c1nccnc1C(F)(F)F (stereo not shown) [Example 476, [4-Fluoro-3-(7-morpholin-4-yl-quinazolin-4-yl)-phenyl]-(3-trifluoro-methylpyrazin-2-yl)-methanol] has a pIC50 [1, 3] greater than 6.30.
For OC(c1ccc(F)c(-c2ncnc3cc(N4CCOCC4)ccc23)c1)c1ncccc1Br (stereo not shown) [Example 478, (3-bromo-pyridin-2-yl)-[4-fluoro-3-(7-morpholin-4-yl-quinazolin-4-yl)-phenyl]methanol], the pIC50 [1, 3] was greater than 6.30.
In the case of OC(c1cccnn1)c1cc(-c2ncnc3cc(N4CCOCC4)ccc23)ccc1Cl (stereo not shown) [Example 479, [2-Chloro-5-(7-morpholin-4-yl-quinazolin-4-yl)-phenyl]pyridazin-3-yl-methanol], the pIC50 [1, 2] was greater than 6.30.
